Source: article PMC3656107, “Polymorphisms in the F8 Gene and MHC-II Variants as Risk Factors for the Development of Inhibitory Anti-Factor VIII Antibodies during the Treatment of Hemophilia A: A Computational Assessment” (PLoS Computational Biology, 2013)

Tests used:
MHC-II DRB1*03:01 [1] = target: T1, MHC-II DRB1*03:01 (Homo sapiens, UniProt P01903+P01911, A100K/A102G/A103R/A169T/F55Y/I96L/K41T/L162R/M171V/P40S/Q125H/Q178H/Q39Y/R42S/S66N/T106N/T262R/W38E/Y61H); assay: Cell-free REVEAL class II binding assay; details: signal of test peptide as percentage of allele-specific positive control peptide, fluorescence, conformation-specific monoclonal antibody
T1 sequence (P01903 26-254 limits assumed, other chains not shown): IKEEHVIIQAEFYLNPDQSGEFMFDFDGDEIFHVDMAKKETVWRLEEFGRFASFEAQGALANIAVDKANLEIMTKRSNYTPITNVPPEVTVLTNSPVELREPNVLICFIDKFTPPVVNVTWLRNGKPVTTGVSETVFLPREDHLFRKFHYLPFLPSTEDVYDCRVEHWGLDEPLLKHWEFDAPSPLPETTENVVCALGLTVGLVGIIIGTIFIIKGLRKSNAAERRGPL
Procedure, shortened: (§1)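 A monoclonal antibody specific for the native peptide-loaded MHC-II conformation generated the fluorescence signal. Binding was quantified relative to a known T-cell epitope for each allele, reported as percent of its signal, with an intermediate-affinity binder included per run.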

MHC-II DRB1*04:01 [2] = target: T2, MHC-II DRB1*04:01 (Homo sapiens, UniProt P01903+P01911, A100K/A169T/F76Y/I96L/K127E/L162R/M171V/N62H/P40V/Q125Y/R42H/S133A/S149N/S66Y/V115G/V209L/W38E); assay: Cell-free REVEAL class II binding assay; details: signal of test peptide as percentage of allele-specific positive control peptide, fluorescence, conformation-specific monoclonal antibody
Procedure, shortened: as §1

MHC-II DRB1*07:01 [3] = target: T3, MHC-II DRB1*07:01 (Homo sapiens, UniProt P01903+P01911, A100R/A102G/A103Q/D57E/D86V/E43K/F76Y/K127E/L162R/M171V/P40G/Q125H/Q99D/R33Q/R42Y/R54Q/S133A/S66F/T210M/V115G/Y107V/Y59L/Y89S); assay: Cell-free REVEAL class II binding assay; details: signal of test peptide as percentage of allele-specific positive control peptide, fluorescence, conformation-specific monoclonal antibody
Procedure, shortened: as §1

MHC-II DRB1*11:01 [4] = target: T4, MHC-II DRB1*11:01 (Homo sapiens, UniProt P01903+P01911, A100R/A169T/A87E/I96F/K41T/L162R/M171V/P40S/Q125H/Q178H/Q39Y/Q99D/R42S/S66Y/T262R/V115G/W38E); assay: Cell-free REVEAL class II binding assay; details: signal of test peptide as percentage of allele-specific positive control peptide, fluorescence, conformation-specific monoclonal antibody
T4 sequence (P01903 26-254 limits assumed, other chains not shown): as above
Procedure, shortened: as §1

MHC-II DRB1*15:01 [5] = target: T5, MHC-II DRB1*15:01 (Homo sapiens, UniProt P01903+P01911); assay: Cell-free REVEAL class II binding assay; details: signal of test peptide as percentage of allele-specific positive control peptide, fluorescence, conformation-specific monoclonal antibody
T5 construct: purchased ProImmune
Procedure, shortened: as §1

MHC-II DRB1*15:03 [6] = target: T6, MHC-II DRB1*15:03 (Homo sapiens, UniProt P01903+P01911, Y59H); assay: Cell-free REVEAL class II binding assay; details: signal of test peptide as percentage of allele-specific positive control peptide, fluorescence, conformation-specific monoclonal antibody
T6 construct: purchased ProImmune
T6 sequence (P01903 26-254, other chains not shown): as the sequence (P01903 26-254 limits assumed, other chains not shown) above
Procedure, shortened: as §1

MHC-II DRB1*03:01 [7] = target: T1, MHC-II DRB1*03:01; assay: Cell-free REVEAL class II stability assay; details: half-life of peptide-MHC-II complex (h, capped at 120) x Binding Score / 100, conformational ELISA
Procedure, shortened: (§2)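 Peptide–MHC-II complex formation followed over 96 hr at 10°C, with samples snap-frozen at set time points and assembled complex detected by conformational anti-HLA ELISA. On- and off-rates come from one-phase association/dissociation fits; half-lives derive from rate constants, and stability score = half-life × Binding Score / 100.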

MHC-II DRB1*04:01 [8] = target: T2, MHC-II DRB1*04:01; assay: Cell-free REVEAL class II stability assay; details: half-life of peptide-MHC-II complex (h, capped at 120) x Binding Score / 100, conformational ELISA
Procedure, shortened: as §2

MHC-II DRB1*07:01 [9] = target: T3, MHC-II DRB1*07:01; assay: Cell-free REVEAL class II stability assay; details: half-life of peptide-MHC-II complex (h, capped at 120) x Binding Score / 100, conformational ELISA
Procedure, shortened: as §2

MHC-II DRB1*11:01 [10] = target: T4, MHC-II DRB1*11:01; assay: Cell-free REVEAL class II stability assay; details: half-life of peptide-MHC-II complex (h, capped at 120) x Binding Score / 100, conformational ELISA
Procedure, shortened: as §2

MHC-II DRB1*15:01 [11] = target: T5, MHC-II DRB1*15:01; assay: Cell-free REVEAL class II stability assay; details: half-life of peptide-MHC-II complex (h, capped at 120) x Binding Score / 100, conformational ELISA
Procedure, shortened: as §2

MHC-II DRB1*15:03 [12] = target: T6, MHC-II DRB1*15:03; assay: Cell-free REVEAL class II stability assay; details: half-life of peptide-MHC-II complex (h, capped at 120) x Binding Score / 100, conformational ELISA
Procedure, shortened: as §2

Sequence | Binding Score (MHC-II DRB1*03:01 [1]) | Binding Score (MHC-II DRB1*04:01 [2]) | Binding Score (MHC-II DRB1*07:01 [3]) | Binding Score (MHC-II DRB1*11:01 [4]) | Binding Score (MHC-II DRB1*15:01 [5]) | Binding Score (MHC-II DRB1*15:03 [6]) | Stability Index (MHC-II DRB1*03:01 [7]) | Stability Index (MHC-II DRB1*04:01 [8]) | Stability Index (MHC-II DRB1*07:01 [9]) | Stability Index (MHC-II DRB1*11:01 [10]) | Stability Index (MHC-II DRB1*15:01 [11]) | Stability Index (MHC-II DRB1*15:03 [12])
QKTMKVTGVTTQGVK [synthetic wild type FVIII 15 mer peptide, region of ns-SNP M2238V] | 0.0% | 6.6% | 0.0% | 0.1% | 0.8% | 0.0% | 0.0 | 0.5 | 0.0 | 0.0 | 0.5 | 0.0
RIHPQSWVHQIALRM [synthetic wild type FVIII 15 mer peptide] | 0.0% | 54.3% | 2.1% | 74.9% | 8.3% | 1.4% | 0.0 | 12.6 | 2.6 | 4.5 | 10.0 | 0.1
RQNVEGSYDGAYAPV [synthetic wild type FVIII 15 mer peptide, region of ns-SNP D1241E] | 0.0% | 0.0% | 0.0% | 0.1% | 0.0% | 0.0% | 0.0 | 0.0 | 0.0 | 0.0 | 0.0 | 0.0
RSNAWRPQVNNPKEW [synthetic wild type FVIII 15 mer peptide] | 0.0% | 18.2% | 0.0% | 0.1% | 0.4% | 0.0% | 0.0 | 12.4 | 0.0 | 0.0 | 0.5 | 0.0
SDPRCLTRYYSSFVN [synthetic wild type FVIII 15 mer peptide] | 0.5% | 2.4% | 0.1% | 7.8% | 237.9% | 13.8% | 0.0 | 0.2 | 0.0 | 0.5 | 285.5 | 16.6
SGYTFKHKMVYEDTL [synthetic wild type FVIII 15 mer peptide] | 1.3% | 1.0% | 0.0% | 14.9% | 1.0% | 0.0% | 0.0 | 0.1 | 0.0 | 2.2 | 1.2 | 0.0
SLHAVGVSYWKASEG [synthetic wild type FVIII 15 mer peptide] | 1.3% | 1.3% | 0.2% | 0.3% | 18.1% | 0.7% | 0.1 | 0.1 | 0.0 | 0.0 | 1.4 | 0.0
SQFIIMYSLDGKKWQ [synthetic wild type FVIII 15 mer peptide] | 4.8% | 38.1% | 0.0% | 100.8% | 1455.4% | 14.6% | 0.5 | 11.8 | 0.0 | 27.9 | 1746.5 | 16.4
SRPYNIYPHGITDVR [synthetic wild type FVIII 15 mer peptide, region of ns-SNP R484H] | 0.1% | 0.2% | 0.0% | 12.0% | 0.1% | 0.2% | 0.0 | 0.0 | 0.0 | 0.4 | 0.1 | 0.1
SYDGAYAPVLQDFRS [synthetic wild type FVIII 15 mer peptide, region of ns-SNP D1241E] | 1.7% | 0.4% | 0.0% | 0.1% | 0.0% | 0.0% | 0.1 | 0.0 | 0.0 | 0.0 | 0.0 | 0.0
SYWKASEGAEYDDQT [synthetic wild type FVIII 15 mer peptide] | 0.0% | 1.5% | 0.0% | 2.8% | 0.0% | 0.0% | 0.0 | 0.2 | 0.0 | 0.0 | 0.0 | 0.0
TKSDPRCLTRYYSSF [synthetic wild type FVIII 15 mer peptide] | 12.6% | 0.8% | 0.0% | 23.1% | 37.9% | 26.8% | 2.4 | 0.1 | 0.0 | 0.8 | 45.5 | 1.6
TLTLFPFSGETVFMS [synthetic wild type FVIII 15 mer peptide] | 0.0% | 7.3% | 0.0% | 0.1% | 41.4% | 0.4% | 0.0 | 0.6 | 0.0 | 0.0 | 2.3 | 0.0
TRYLRIHPQSWVHQI [synthetic wild type FVIII 15 mer peptide] | 0.0% | 8.2% | 34.0% | 49.4% | 819.2% | 25.4% | 0.0 | 0.9 | 40.8 | 5.3 | 983.1 | 30.5
TVEDGPTKSDPRCLT [synthetic wild type FVIII 15 mer peptide] | 0.2% | 0.2% | 0.0% | 0.0% | 0.0% | 0.0% | 0.0 | 0.0 | 0.0 | 0.0 | 0.0 | 0.0
